Legend:
Lactobacillus gasseri = details: L. gasseri single culture, 24 hours at 37° C., 5% CO2, 0.625% boric acid; MRS without boric acid 7.28 × 10^6
Lactobacillus crispatus = details: L. crispatus single culture, 24 hours at 37° C., 5% CO2, 0.625% boric acid; MRS without boric acid 1.19 × 10^7
[1] = tested on: lactobacilli tested, either alone or in combination; details: 0.625% boric acid
[2] = tested on: mixture of four lactobacilli; details: mix of four lactobacilli, 24 hours at 37° C., 5% CO2, 0.625% boric acid; MRS without boric acid 7.63 × 10^6
[3] = vaginal suppositories 600 mg/ovule, throughout the duration of the treatment; cited from earlier work
Gardnerella vaginalis = details: summary statement of the description
Candida albicans [4] = details: cited from earlier work
Candida albicans [5] = details: summary statement of the description
Lactobacillus jensenii = details: L. jensenii single culture, 24 hours at 37° C., 5% CO2, 0.625% boric acid; MRS without boric acid 7.63 × 10^6
Lactobacillus rhamnosus = details: L. rhamnosus single culture, 24 hours at 37° C., 5% CO2, 0.625% boric acid; MRS without boric acid 7.45 × 10^6
[6] = low concentrations, non-therapeutic doses, first 24 hours

OB(O)O [boric acid]
lactobacilli culture count, MRS with boric acid (Lactobacillus gasseri): 2.37 × 10^6
lactobacilli culture count, MRS with boric acid (Lactobacillus crispatus): 6.29 × 10^6
inhibitory effect on the growth of the lactobacilli [1]: no inhibitory effect
lactobacilli culture count, MRS with boric acid [2]: 7.40 × 10^6
circulation levels of boric acid [3]: under 1 μg/ml
activity against Gardnerella vaginalis (Gardnerella vaginalis): poor activity
pH at which the substance completely inhibits the growth of Candida albicans (Candida albicans [4]; in vitro tests): 5-5.9
cellular ergosterol (Candida albicans [4]; [6]): decrease
inhibition of the micro-organisms growth, planktonic and biofilm form (Candida albicans [4]; [6]): moderate inhibition
activity against Candida albicans (Candida albicans [5]): good activity
lactobacilli culture count, MRS with boric acid (Lactobacillus jensenii): 7.47 × 10^6
lactobacilli culture count, MRS with boric acid (Lactobacillus rhamnosus): 3.17 × 10^6

Source: patent US20170071990A1 (Pizeta Group Srl, priority 2014, published 2017)
